Assay results from EPA's ToxRefDB 2.

Legend:
rabbit [1] = conditions: Prenatal developmental toxicity study, himalayan, Oral, Gavage/Intubation, dose end: 27 GD
rat [2] = conditions: Prenatal developmental toxicity study, sprague dawley, Oral, Gavage/Intubation, dose end: 15 GD
rat [3] = conditions: Combined chronic toxicity/carcinogenicity, sprague dawley, Oral, Feed, dose end: 106 week
rat [4] = conditions: Prenatal developmental toxicity study, sprague dawley, Oral, Gavage/Intubation, dose end: 15 GD; remark: listed apart in the source
rat [5] = conditions: Prenatal developmental toxicity study, sprague dawley albino, Oral, Gavage/Intubation, dose end: 19 GD
rat [6] = conditions: Multigenerational reproductive toxicity study, wistar, Oral, Feed, dose end: 2 generation
rat [7] = conditions: Peri- and post-natal toxicity study (Segment III), wistar, Oral, Gavage/Intubation, dose end: 21 PND
rat [8] = conditions: Multigenerational reproductive toxicity study, wistar, Oral, Gavage/Intubation, dose end: 1 generation
mouse [9] = conditions: Multigenerational reproductive toxicity study, cd1, Oral, Water, dose end: 1 generation
rabbit [10] = conditions: Prenatal developmental toxicity study, new zealand white, Oral, Gavage/Intubation, dose end: 19 GD
mouse [11] = conditions: Prenatal developmental toxicity study, cd1, Oral, Gavage/Intubation, dose end: 15 GD
[12] = group: developmental, developmental / developmental malformation / bone / [other] + developmental / developmental malformation / bone / fused + developmental / …
[13] = group: maternal, reproductive / reproductive performance / postimplantation loss / postimplantation loss + systemic / in life observation / body weight / …
[14] = group: developmental, developmental / developmental malformation / trunk / ecchymosis
[15] = group: developmental, developmental / developmental malformation / trunk / ecchymosis + developmental / developmental malformation / bone / incomplete …
[16] = group: maternal, systemic / in life observation / body weight / body weight gain + systemic / in life observation / food consumption / food consumption
[17] = group: maternal, systemic / in life observation / body weight / body weight gain + systemic / in life observation / food consumption / food consumption + …
[18] = group: cholinesterase, cholinesterase / cholinesterase / cholinesterase / erythrocyte cholinesterase (che) + cholinesterase / cholinesterase / cholinesterase / …
[19] = group: systemic, systemic / in life observation / body weight / body weight + systemic / in life observation / body weight / body weight gain + systemic / in…
[20] = group: developmental, developmental / developmental malformation / bone / absent + developmental / developmental malformation / bone / supernumerary
[21] = group: developmental, developmental / developmental malformation / bone / absent + developmental / developmental malformation / bone / supernumerary + systemic / …
[22] = group: maternal, systemic / in life observation / body weight / body weight gain
[23] = group: maternal, systemic / in life observation / body weight / body weight gain + systemic / in life observation / clinical signs / salivation + systemic / …
[24] = group: developmental, developmental / developmental landmark / anogenital distance (agd) / anogenital distance (agd)
[25] = group: offspring, systemic / organ weight / liver / absolute + systemic / organ weight / liver / nos + systemic / organ weight / epididymis / absolute + …
[26] = group: offspring, systemic / organ weight / testes / nos
[27] = group: parental, systemic / organ weight / testes / absolute
[28] = group: parental, systemic / organ weight / testes / absolute + systemic / organ weight / liver / nos + systemic / organ weight / testes / nos + systemic / …
[29] = group: reproductive, reproductive / reproductive performance / fertility / fertility
[30] = group: offspring, systemic / in life observation / body weight / offspring (pup) weight gain
[31] = group: parental, systemic / in life observation / body weight / body weight gain + systemic / in life observation / food consumption / food consumption
[32] = group: reproductive, reproductive / offspring survival early / dead fetuses / dead fetuses
[33] = group: offspring, systemic / in life observation / body weight / offspring (pup) weight
[34] = group: parental, systemic / organ weight / liver / absolute + systemic / organ weight / liver / relative to body weight + systemic / organ weight / pituitary…
[35] = group: reproductive, reproductive / reproductive performance / reproductive performance other / NOS + reproductive / reproductive performance / gestational …
[36] = group: developmental, developmental / developmental malformation / general / local edema + developmental / developmental malformation / great vessels / persistent…
[37] = group: maternal, reproductive / reproductive performance / preimplantation loss / preimplantation loss + reproductive / reproductive performance / …
[38] = group: developmental, developmental / developmental malformation / bone / exencephaly + developmental / developmental malformation / bone / fused + developmental…
[39] = group: maternal, systemic / organ weight / liver / relative to body weight

CCCCCCCCCCCCCC[N+](C)(C)CCC[Si](OC)(OC)OC.[Cl-]
LEL (rabbit [1]; [12]): 180 mg/kg/day
LOAEL (rabbit [1]; [12]): > 180 mg/kg/day
NEL (rabbit [1]; [12]): 90 mg/kg/day
NOAEL (rabbit [1]; [12]): ≥ 180 mg/kg/day
LEL (rabbit [1]; [13]): 180 mg/kg/day
LOAEL (rabbit [1]; [13]): > 180 mg/kg/day
NEL (rabbit [1]; [13]): 90 mg/kg/day
NOAEL (rabbit [1]; [13]): ≥ 180 mg/kg/day

CNC(=O)O/N=C/C(C)(C)SC [Aldicarb]
LEL (rat [2]; [14]): 0.25 mg/kg/day
LOAEL (rat [2]; [14]): 0.25 mg/kg/day
NEL (rat [2]; [15]): 0.125 mg/kg/day
NOAEL (rat [2]; [15]): 0.125 mg/kg/day
LEL (rat [2]; [16]): 0.25 mg/kg/day
LOAEL (rat [2]; [16]): 0.25 mg/kg/day
NEL (rat [2]; [17]): 0.125 mg/kg/day
NOAEL (rat [2]; [17]): 0.125 mg/kg/day
LEL (rat [3]; [18]): 0.47 mg/kg/day
LOAEL (rat [3]; [18]): 0.47 mg/kg/day
NEL (rat [3]; [18]): 0.047 mg/kg/day
NOAEL (rat [3]; [18]): 0.047 mg/kg/day
LEL (rat [3]; [19]): 1.44 mg/kg/day
LOAEL (rat [3]; [19]): > 1.44 mg/kg/day
NEL (rat [3]; [19]): 0.47 mg/kg/day
NOAEL (rat [3]; [19]): ≥ 1.44 mg/kg/day

C=C(C)C1CC=C(C)CC1 (stereo unspecified) [Limonene]
LEL (rat [4]; [20]): 500 mg/kg/day
LOAEL (rat [4]; [20]): 500 mg/kg/day
NEL (rat [4]; [21]): 250 mg/kg/day
NOAEL (rat [4]; [21]): 250 mg/kg/day
LEL (rat [4]; [22]): 500 mg/kg/day
LOAEL (rat [4]; [22]): 500 mg/kg/day
NEL (rat [4]; [23]): 250 mg/kg/day
NOAEL (rat [4]; [23]): 250 mg/kg/day

CC12CC1(C)C(=O)N(c1cc(Cl)cc(Cl)c1)C2=O (stereo unspecified) [Procymidone]
LEL (rat [5]; [24]): 12.5 mg/kg/day
LOAEL (rat [5]; [24]): 12.5 mg/kg/day
NEL (rat [5]; [24]): 3.5 mg/kg/day
NOAEL (rat [5]; [24]): 3.5 mg/kg/day
LOAEL (rat [5]; [16]): 125 mg/kg/day
LEL (rat [5]; [17]): 125 mg/kg/day
NEL (rat [5]; [17]): 12.5 mg/kg/day
NOAEL (rat [5]; [17]): 12.5 mg/kg/day
LOAEL (rat [6]; [25]): > 77.8 mg/kg/day
NOAEL (rat [6]; [25]): ≥ 77.8 mg/kg/day
LEL (rat [6]; [26]): 5.35 mg/kg/day
NEL (rat [6]; [26]): < 5.35 mg/kg/day
LEL (rat [6]; [27]): 22.7 mg/kg/day
LOAEL (rat [6]; [27]): 22.7 mg/kg/day
NEL (rat [6]; [28]): 4.52 mg/kg/day
NOAEL (rat [6]; [28]): 4.52 mg/kg/day
LEL (rat [6]; [29]): 73.2 mg/kg/day
LOAEL (rat [6]; [29]): 73.2 mg/kg/day
NEL (rat [6]; [29]): 24.1 mg/kg/day
NOAEL (rat [6]; [29]): 24.1 mg/kg/day

CCOCC(O)COc1ccc(NC(=O)CC[S+](C)C)cc1.Cc1ccc(S(=O)(=O)[O-])cc1 (stereo unspecified) [Suplatast tosylate]
LEL (rat [7]; [30]): 1800 mg/kg/day
LOAEL (rat [7]; [30]): > 1800 mg/kg/day
NEL (rat [7]; [30]): 600 mg/kg/day
NOAEL (rat [7]; [30]): ≥ 1800 mg/kg/day
LEL (rat [7]; [31]): 1800 mg/kg/day
LOAEL (rat [7]; [31]): > 1800 mg/kg/day
NEL (rat [7]; [31]): 600 mg/kg/day
NOAEL (rat [7]; [31]): ≥ 1800 mg/kg/day
LEL (rat [8]; [31]): 1800 mg/kg/day
LOAEL (rat [8]; [31]): > 1800 mg/kg/day
NEL (rat [8]; [31]): 600 mg/kg/day
NOAEL (rat [8]; [31]): ≥ 1800 mg/kg/day
LEL (rat [8]; [32]): 1800 mg/kg/day
LOAEL (rat [8]; [32]): > 1800 mg/kg/day
NEL (rat [8]; [32]): 600 mg/kg/day
NOAEL (rat [8]; [32]): ≥ 1800 mg/kg/day

COCCOCCOCCOC [Triethylene glycol dimethyl ether]
LEL (mouse [9]; [33]): 87.5 mg/kg/day
LOAEL (mouse [9]; [33]): > 175 mg/kg/day
NEL (mouse [9]; [33]): 43.8 mg/kg/day
NOAEL (mouse [9]; [33]): ≥ 175 mg/kg/day
LEL (mouse [9]; [34]): 175 mg/kg/day
LOAEL (mouse [9]; [34]): > 175 mg/kg/day
NEL (mouse [9]; [34]): 87.5 mg/kg/day
NOAEL (mouse [9]; [34]): ≥ 175 mg/kg/day
LEL (mouse [9]; group: reproductive, reproductive / reproductive performance / gestational length / gestational length): 87.5 mg/kg/day
LOAEL (mouse [9]; [35]): > 175 mg/kg/day
NEL (mouse [9]; [35]): 43.8 mg/kg/day
NOAEL (mouse [9]; [35]): ≥ 175 mg/kg/day
LOAEL (rabbit [10]; [36]): > 250 mg/kg/day
NEL (rabbit [10]; [36]): 75 mg/kg/day
NOAEL (rabbit [10]; [36]): ≥ 250 mg/kg/day
LEL (rabbit [10]; group: developmental, developmental / developmental malformation / spleen / small): 125 mg/kg/day
LOAEL (rabbit [10]; [37]): > 250 mg/kg/day
NEL (rabbit [10]; [37]): 125 mg/kg/day
NOAEL (rabbit [10]; [37]): ≥ 250 mg/kg/day
LEL (rabbit [10]; [22]): 175 mg/kg/day
LOAEL (mouse [11]; [38]): > 1000 mg/kg/day
NEL (mouse [11]; [38]): 250 mg/kg/day
NOAEL (mouse [11]; [38]): ≥ 1000 mg/kg/day
LEL (mouse [11]; group: developmental, systemic / in life observation / body weight / fetal weight): 500 mg/kg/day
LEL (mouse [11]; [39]): 500 mg/kg/day
LOAEL (mouse [11]; [39]): > 1000 mg/kg/day
NEL (mouse [11]; [39]): 250 mg/kg/day
NOAEL (mouse [11]; [39]): ≥ 1000 mg/kg/day
